Values after ≈ are worked out from the molar mass of the structure shown. Values belong to the molecule of their own block, whether it stands above or below them. Active and inactive are the calls of the source. No cut-off for these calls is given here. Bridge positions count the residues as written; N and C are the ends. Square brackets hold non-standard residues; d marks the D form. Peptide text beside a SMILES is read from it. * marks the point of attachment. ξ: configuration not given here. Hexanoyl(4ξ-Me) = CCC(C)CCC(=O)*; dOrn = NCCC[C@@H](N)C(=O)O; Orn = NCCC[C@H](N)C(=O)O
Tests used:
Staphylococcus aureus [1] = assay: Induction of morphological changes in Staphylococcus aureus ATCC 25923 assessed as adhesion at 2 times MIC measured after 0.5 hrs by SEM based analysis; format: functional, organism-based
Cell membrane [2] = assay: Induction of outer membrane permeabilization in Pseudomonas aeruginosa ATCC 27853 assessed increase in fluorescence intensity at 1/2 to 4 times MIC measured upto 12 mins by fluorescence based NPN uptake assay; format: cell membranes
Staphylococcus aureus [3] = assay: Antibacterial activity against Staphylococcus aureus ATCC 25923 pretreated with FeCl3 followed by compound addition and measured after 2 hrs by broth microdilution method (reference value: 8 microM); format: functional
Staphylococcus aureus [4] = assay: Antibiofilm activity against Staphylococcus aureus ATCC 25923 assessed as biofilm eradication at 1/2 to 4 times MIC measured after 24 hrs by crystal violet staining based analysis; format: functional, organism-based
Staphylococcus aureus [5] = assay: Antibacterial activity against Staphylococcus aureus ATCC 25923 pretreated with 2.5% mouse serum followed by compound addition and measured after 1 hr by broth microdilution method (reference value: 8 microM); format: functional
Cell membrane [6] = assay: Induction of cytoplasmic membrane depolarization in Staphylococcus aureus ATCC 25923 assessed as increase in fluorescence intensity measured upto 12 min by DiSC3-5 dye based fluorescence method; format: cell membranes
Pseudomonas aeruginosa [7] = assay: Induction of morphological changes in Pseudomonas aeruginosa ATCC 27853 assessed as adhesion at 2 times MIC measured after 0.5 hrs by SEM based analysis; format: functional, organism-based
Staphylococcus aureus [8] = assay: Antibacterial activity against Staphylococcus aureus ATCC 25923 pretreated with ZnCl2 followed by compound addition and measured after 2 hrs by broth microdilution method (reference value: 8 microM); format: functional
Staphylococcus aureus [9] = assay: Antibacterial activity against Staphylococcus aureus ATCC 25923 assessed as fold increase in MIC pretreated with MgCl2 followed by compound addition and measured after 2 hrs by broth microdilution method; format: functional
Staphylococcus aureus [10] = assay: Antibacterial activity against Staphylococcus aureus ATCC 25923 pretreated with Na-cl followed by compound addition and measured after 2 hrs by broth microdilution method (reference value: 8 microM); format: functional
[11] = Toxicity in male BALB/c mouse assessed as inflammatory cell infiltration in kidney at 46.88 mg/kg, ip administered as single dose by H and E staining based analysis; format: organism-based; details: in vivo
[12] = Toxicity in male BALB/c mouse assessed as survival rate at 62.6 mg/kg, ip measured after 6 days relative to control; format: organism-based; details: in vivo, time 6 day
Staphylococcus aureus [13] = assay: Antibacterial activity against Staphylococcus aureus ATCC 25923 assessed as fold increase in MIC pretreated with 2.5 to 20% mouse serum followed by compound addition and measured after 1 to 6 hrs by broth microdilution method; format: functional; details: time 1-6 hrs
Staphylococcus aureus [14] = assay: Antibacterial activity against Staphylococcus aureus ATCC 25923 pretreated with Kcl followed by compound addition and measured after 2 hrs by broth microdilution method (reference value: 64 microM); format: functional
Staphylococcus aureus [15] = assay: Antibacterial activity against Staphylococcus aureus ATCC 25923 pretreated with Na-cl followed by compound addition and measured after 2 hrs by broth microdilution method (reference value: 64 microM); format: functional
Pseudomonas aeruginosa [16] = assay: Antibacterial activity against Pseudomonas aeruginosa ATCC 27853 assessed as fold increase in MIC pretreated with 2.5 to 20% mouse serum followed by compound addition and measured after 1 hr by broth microdilution method; format: functional
Staphylococcus aureus [17] = assay: Induction of morphological changes in Staphylococcus aureus ATCC 25923 assessed as membrane rupture at 2 times MIC measured after 0.5 hrs by SEM based analysis; format: functional, organism-based
Staphylococcus aureus [18] = assay: Antibacterial activity against Staphylococcus aureus ATCC 25923 assessed as fold increase in MIC pretreated with 2.5 to 20% mouse serum followed by compound addition and measured after 1 hr by broth microdilution method; format: functional
Staphylococcus aureus [19] = assay: Antibacterial activity against Staphylococcus aureus ATCC 25923 pretreated with Zncl2 followed by compound addition and measured after 2 hrs by broth microdilution method (reference value: 64 microM); format: functional
Staphylococcus aureus [20] = assay: Antibacterial activity against Staphylococcus aureus ATCC 25923 pretreated with 5% mouse serum followed by compound addition and measured after 6 hrs by broth microdilution method (reference value: 64 microM); format: functional
Staphylococcus aureus [21] = assay: Bactericidal activity against Staphylococcus aureus ATCC 25923 assessed as assessed as eradication of bacterial cells at 1/2 to 4 times MIC measured after 0.5 hr by time killing analysis; format: functional, organism-based
Staphylococcus aureus [22] = assay: Antibacterial activity against Staphylococcus aureus ATCC 25923 pretreated with Mgcl2 followed by compound addition and measured after 2 hrs by broth microdilution method (reference value: 64 microM); format: functional
Cell membrane [23] = assay: Induction of outer membrane permeabilization in Pseudomonas aeruginosa ATCC 27853 assessed increase in fluorescence intensity at 1/2 to 4 times MIC by fluorescence based NPN uptake assay; format: cell membranes; details: time <= 12.0 min, TDE = time-dependent effect
Staphylococcus aureus [24] = assay: Antibacterial activity against Staphylococcus aureus ATCC 25923 pretreated with 20% mouse serum followed by compound addition and measured after 6 hrs by broth microdilution method (reference value: 16 microM); format: functional, organism-based
Pseudomonas aeruginosa [25] = assay: Antibiofilm activity against Pseudomonas aeruginosa ATCC 27853 assessed as biofilm eradication at 1/2 to 4 times MIC measured after 24 hrs by crystal violet staining based analysis; format: functional, organism-based
Staphylococcus aureus [26] = assay: Antibacterial activity against Staphylococcus aureus ATCC 25923 pretreated with 10% mouse serum followed by compound addition and measured after 6 hrs by broth microdilution method (reference value: 16 microM); format: functional, organism-based
Staphylococcus aureus [27] = assay: Antibacterial activity against Staphylococcus aureus ATCC 25923 pretreated with 20% mouse serum followed by compound addition and measured after 1 hr by broth microdilution method (reference value: 16 microM); format: functional, organism-based
Staphylococcus aureus [28] = assay: Antibacterial activity against Staphylococcus aureus ATCC 25923 pretreated with 5% mouse serum followed by compound addition and measured after 1 hr by broth microdilution method (reference value: 16 microM); format: functional, organism-based
Staphylococcus aureus [29] = assay: Antibacterial activity against Staphylococcus aureus ATCC 25923 pretreated with 2.5% mouse serum followed by compound addition and measured after 6 hrs by broth microdilution method (reference value: 16 microM); format: functional, organism-based
Staphylococcus aureus [30] = assay: Antibacterial activity against Staphylococcus aureus ATCC 25923 pretreated with Mgcl2 followed by compound addition and measured after 2 hrs by broth microdilution method (reference value: 16 microM); format: functional, organism-based

Molecule: CCCCCCCCCC(=O)N[C@H](CCCN)C(=O)N[C@H](Cc1ccc(O)cc1)C(=O)N[C@H](Cc1c[nH]c2ccccc12)C(=O)N[C@H](CCCN)C(=O)N[C@@H](CCCN)C(=O)NCC(=O)N[C@H](CCCN)C(=O)N[C@@H](Cc1c[nH]c2ccccc12)C(=O)N[C@H](C(=O)N[C@H](C(=O)NCC(=O)N[C@@H](CO)C(=O)O)[C@@H](C)CC)[C@@H](C)O
Activity (Staphylococcus aureus [1]): Active
Activity (Cell membrane [2]): inactive
MIC (Staphylococcus aureus [3]): 8 µM (≈ 12.6 µg/mL)
Activity (Staphylococcus aureus [4]): Active
MIC (Staphylococcus aureus [5]): 16 µM (≈ 25.3 µg/mL)
Activity (Cell membrane [6]): Dose-Dependent Effect
Activity (Pseudomonas aeruginosa [7]): Active
MIC (Staphylococcus aureus [8]): 32 µM (≈ 50.6 µg/mL)
fold change (FC) (Staphylococcus aureus [9]): 2
MIC (Staphylococcus aureus [10]): 16 µM (≈ 25.3 µg/mL)
Activity [11]: Toxic
survival at 144 h [12]: 12.5%
fold change (FC) (Staphylococcus aureus [13]): 4

MIC (Staphylococcus aureus [14]): 64 µM (≈ 97.3 µg/mL)
MIC (Staphylococcus aureus [15]): 128 µM (≈ 195 µg/mL)
MIC (Staphylococcus aureus [19]): 64 µM (≈ 97.3 µg/mL)
MIC (Staphylococcus aureus [20]): 128 µM (≈ 195 µg/mL)
MIC (Staphylococcus aureus [22]): 64 µM (≈ 97.3 µg/mL)
Molecule: CCC(C)CCC(=O)N[C@H](CC(N)=O)C(=O)N[C@H](Cc1ccc(O)cc1)C(=O)N[C@H](Cc1c[nH]c2ccccc12)C(=O)N[C@H](CCCN)C(=O)N[C@@H](CCCN)C(=O)NCC(=O)N[C@H](CCCN)C(=O)N[C@@H](Cc1c[nH]c2ccccc12)C(=O)N[C@@H]1C(=O)N[C@@H]([C@@H](C)CC)C(=O)NCC(=O)N[C@@H](CO)C(=O)O[C@@H]1C (stereo not given in full) ({Hexanoyl(4ξ-Me)}-[dN][dY][dW][dOrn][Orn]G[dOrn]WTIGS; ester 9-C)
fold change (FC) (Pseudomonas aeruginosa [16]): 2
Activity (Staphylococcus aureus [17]): Active
fold change (FC) (Staphylococcus aureus [18]): 2
Activity (Staphylococcus aureus [21]): Active

Molecule: POLYMYXIN B
Activity (Cell membrane [23]): Tde
MIC (Staphylococcus aureus [24]): 16 µM
Activity (Pseudomonas aeruginosa [25]): Active
MIC (Staphylococcus aureus [26]): 16 µM
MIC (Staphylococcus aureus [27]): 16 µM
MIC (Staphylococcus aureus [28]): 16 µM
MIC (Staphylococcus aureus [29]): 16 µM
MIC (Staphylococcus aureus [30]): 8 µM
